Data published in ChEMBL document CHEMBL1129774, “Antitumor agents 171. Cytotoxicities of lobatosides B, C, D, and E, cyclic bisdesmosides isolated from Actinostemma lobatum maxim” (1996).
Several values for one entry are separate records, joined by “and”; a condition that tells them apart may be missing. Equal entries are not always repeated.

Tests used:
Assay type in all cases: functional
OVCAR-5 = assay: In vitro cytotoxicity against human ovarian cancer OVCAR-5 cell line
PC-3 = assay: In vitro cytotoxicity against human prostate cancer PC-3 cell line
UO-31 = assay: In vitro cytotoxicity against human renal cancer UO-31 cell line
HL-60 = assay: In vitro cytotoxicity against human leukemia HL-60(TB) cancer cell line
A549 = assay: In vitro cytotoxicity against human Non-small cell lung cancer A549/ATCC cell line.
MDA-MB-435 = assay: In vitro cytotoxicity against human […] MDA-MB-435 cell line
HCC 2998 = assay: In vitro cytotoxicity against human colon cancer HCC2998 cell line.
SF-295 = assay: In vitro cytotoxicity against human CNS cancer SF-295 cell line.
SK-MEL-28 = assay: In vitro cytotoxicity against human melanoma SK-MEL-28 cancer cell line.
SK-MEL-5 = assay: In vitro cytotoxicity against human melanoma SK-MEL-5 cancer cell line.

Row | Compound | GI50 (OVCAR-5) [nM] | GI50 (PC-3) [nM] | GI50 (UO-31) [nM] | GI50 (HL-60) [nM] | GI50 (A549) [nM] | GI50 (MDA-MB-435) [nM] | GI50 (HCC 2998) | GI50 (SF-295) [nM] | GI50 (SK-MEL-28) [nM] | GI50 (SK-MEL-5) [nM] | GI50 (HCC 2998; Homo sapiens, HCC 2998) [nM]
1 | C[C@@H]1O[C@H]2O[C@H]3[C@@H](OC[C@H](O)[C@@H]3O)OC(=O)[C@@]34CCC5C(=CC[C@@H]6[C@@]7(C)C[C@H](O)[C@H](O[C@@H]8O[C@H](CO)[C@@H](O)[C@H](O)[C@H]8O[C@@H]8O[C@H](CO)[C@H](O)[C@H](O)[C@H]8OC(=O)CC(C)(O)CC(=O)O[C@@H]1[C@@H](O[C@@H]1O[C@H](CO)[C@@H](O)[C@H](O)[C@H]1O)[C@H]2O)C(C)(C)[C@@H]7CC[C@@]56C)[C@@H]3CC(C)(C)CC4 (stereo partly specified) | 2000 | 1950 | 1620 | 1450 | 140 | 1450 | 1410 nM and 360 nM | 1510 | 1290 | 140 | –
2 | C[C@@H]1O[C@H]2O[C@H]3[C@@H](OC[C@H](O)[C@@H]3O)OC(=O)[C@@]34CCC5C(=CC[C@@H]6[C@@]7(C)C[C@H](O)[C@H](O[C@@H]8O[C@H](CO)[C@@H](O)[C@H](O)[C@H]8O[C@H]8OC[C@H](OC(=O)CC(C)(O)CC(=O)O[C@@H]1[C@@H](O[C@@H]1O[C@H](CO)[C@@H](O)[C@H](O)[C@H]1O)[C@H]2O)C(O)[C@H]8O)C(C)(C)[C@@H]7CC[C@@]56C)[C@@H]3CC(C)(C)CC4 (stereo partly specified) | 8910 | 7940 | 4470 | 1820 | 3890 | 2450 | 2450 nM and 9330 nM | 4070 | 1940 | 11400 | –
3 | C[C@@H]1O[C@H]2O[C@H]3[C@@H](OC[C@H](O)[C@@H]3O)OC(=O)[C@@]34CC[C@@H]5C(=CC[C@H]6[C@@]5(C)CC[C@H]5C(C)(C)[C@@H](O[C@@H]7O[C@H](CO)[C@@H](O)[C@H](O)[C@H]7O[C@H]7OC[C@H](OC(=O)CC(C)(O)CC(=O)O[C@@H]1[C@@H](O)[C@H]2O)[C@H](O)[C@H]7O)[C@@H](O)C[C@]65C)[C@@H]3CC(C)(C)CC4 (stereo partly specified) | 1320 | 2190 | 6030 | 1780 | 2240 | 5890 | 2400 nM and 8910 nM | 3390 | 1940 | 4170 | –
4 | C[C@@H]1O[C@H]2OC3[C@@H](OC[C@H](O)[C@@H]3O)OC(=O)[C@@]34CC[C@@H]5C(=CC[C@H]6[C@@]5(C)CC[C@H]5C(C)(C)[C@@H](O[C@@H]7O[C@H](CO)[C@@H](O)[C@H](O)[C@H]7O[C@@H]7O[C@H](CO)[C@@H](O)[C@H](O)[C@H]7OC(=O)CC(C)(O)CC(=O)O[C@@H]1[C@@H](O)[C@H]2O)[C@@H](O)C[C@]65C)[C@@H]3CC(C)(C)CC4 (stereo partly specified) | 1620 | 1380 | 1230 | 1410 | 1320 | 1580 | 1150 nM | 1780 | 1510 | 1200 | 1320
